# Test results as given in US8455475B2 (Gruenenthal GmbH, priority 2009, dated 2013).
# Target: T1, rat B1R (bradykinin receptor 1) (Rattus norvegicus, UniProt P97583)
# T1 construct: expressed in transfected cells; host or cells: CHO K1 cells
# T1 sequence (P97583 1-337): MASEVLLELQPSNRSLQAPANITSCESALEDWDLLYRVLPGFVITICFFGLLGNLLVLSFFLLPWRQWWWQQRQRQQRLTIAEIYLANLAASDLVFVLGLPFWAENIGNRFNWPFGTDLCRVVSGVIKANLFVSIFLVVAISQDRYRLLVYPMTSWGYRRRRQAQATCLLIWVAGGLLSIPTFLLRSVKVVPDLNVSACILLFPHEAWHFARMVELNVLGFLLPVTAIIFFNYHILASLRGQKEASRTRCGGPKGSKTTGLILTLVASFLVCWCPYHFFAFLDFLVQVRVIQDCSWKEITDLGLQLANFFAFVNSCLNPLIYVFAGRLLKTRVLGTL
# Assay: FLIPR Ca2+ assay (Fluo-4) on CHO K1 cells stably transfected with the B1R gene of the rat (rB1R cells): % inhibition at 10 μM / IC50, agonist Des-Arg9-bradykinin
# Assay type: cell-based
# Conditions: CHO-K1, rat B1R
# Summary of the method: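 Cells were Fluo-4-loaded, then test compound (10 μM, or a concentration series for IC50) was preincubated 10–20 min before agonist challenge at EC80: Lys-Des-Arg9-bradykinin for hB1R, Des-Arg9-bradykinin for rB1R. Peak Ca2+ fluorescence (ex 488/em 540 nm) gave % inhibition versus maximal achievable inhibition.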
row,Structure (SMILES),inhibition at 10 µM
1,"O=C(NC1CCc2ccc(C(=O)N3CCC4(CCN(Cc5ccc[nH]5)CC4)CC3)cc21)c1cc(Cl)ccc1F (stereo not shown) [IND_CC-624, 5-Chloro-2-fluoro-N-[6-[9-(1H-pyrrol-2-yl-methyl)-3,9-diazaspiro[5.5]undecane-3-carbonyl]-2,3-dihydro-1H-inden-1-yl]-benzamide]",62%
2,"O=C(NC1CCc2ccc(C(=O)N3CCC4(CCN(Cc5c[nH]cn5)CC4)CC3)cc21)c1cc(Cl)ccc1F (stereo not shown) [IND_CC-625, 5-Chloro-2-fluoro-N-[6-[9-(1H-imidazol-4-yl-methyl)-3,9-diazaspiro[5.5]undecane-3-carbonyl]-2,3-dihydro-1H-inden-1-yl]-benzamide]",50%
3,"O=C(NC1CCc2ccc(C(=O)N3CCC4(CCN(Cc5ccccn5)CC4)CC3)cc21)c1cc(Cl)ccc1F (stereo not shown) [IND_CC-626, 5-Chloro-2-fluoro-N-[6-[9-(pyridin-2-yl-methyl)-3,9-diazaspiro[5.5]undecane-3-carbonyl]-2,3-dihydro-1H-inden-1-yl]-benzamide]",55%
4,"O=C(NC1CCc2ccc(C(=O)N3CCC4(CCN(Cc5ccncc5)CC4)CC3)cc21)c1cc(Cl)ccc1F (stereo not shown) [IND_CC-627, 5-Chloro-2-fluoro-N-[6-[9-(pyridin-4-yl-methyl)-3,9-diazaspiro[5.5]undecane-3-carbonyl]-2,3-dihydro-1H-inden-1-yl]-benzamide]",54%
5,"O=C(NC1CCc2ccc(C(=O)N3CCC4(CCN(Cc5ccc(F)c(F)c5)CC4)CC3)cc21)c1cc(Cl)ccc1F (stereo not shown) [IND_CC-628, 5-Chloro-N-[6-[9-[(3,4-difluoro-phenyl)-methyl]-3,9-diazaspiro[5.5]undecane-3-carbonyl]-2,3-dihydro-1H-inden-1-yl]-2-fluoro-benzamide]",63%
6,"O=C(NC1CCc2ccc(C(=O)N3CCC4(CCN(Cc5ccc(F)cc5F)CC4)CC3)cc21)c1cc(Cl)ccc1F (stereo not shown) [IND_CC-629, 5-Chloro-N-[6-[9-[(2,4-difluoro-phenyl)-methyl]-3,9-diazaspiro[5.5]undecane-3-carbonyl]-2,3-dihydro-1H-inden-1-yl]-2-fluoro-benzamide]",71%
7,"COc1ccc(CN2CCC3(CC2)CCN(C(=O)c2ccc4c(c2)C(NC(=O)c2cc(Cl)ccc2F)CC4)CC3)cc1F (stereo not shown) [IND_CC-630, 5-Chloro-2-fluoro-N-[6-[9-[(3-fluoro-4-methoxy-phenyl)-methyl]-3,9-diazaspiro[5.5]undecane-3-carbonyl]-2,3-dihydro-1H-inden-1-yl]-benzamide]",53%
8,"O=C(NC1CCc2ccc(C(=O)N3CCC4(CCN(Cc5c[nH]cn5)CC4)C3)cc21)c1cc(C(F)(F)F)ccc1Cl (stereo not shown) [IND_CC-631, 2-Chloro-N-[6-[8-(1H-imidazol-4-yl-methyl)-2,8-diazaspiro[4.5]decane-2-carbonyl]-2,3-dihydro-1H-inden-1-yl]-5-(trifluoromethyl)-benzamide]",57%
9,"O=C(NC1CCc2ccc(C(=O)N3CCC4(CCN(Cc5c(F)cccc5F)CC4)C3)cc21)c1cc(C(F)(F)F)ccc1Cl (stereo not shown) [IND_CC-632, 2-Chloro-N-[6-[8-[(2,6-difluoro-phenyl)-methyl]-2,8-diazaspiro[4.5]decane-2-carbonyl]-2,3-dihydro-1H-inden-1-yl]-5-(trifluoromethyl)-benzamide]",64%
10,"O=C(NC1CCc2ccc(C(=O)N3CCC4(CCN(Cc5ccc(F)c(F)c5)CC4)C3)cc21)c1cc(C(F)(F)F)ccc1Cl (stereo not shown) [IND_CC-633, 2-Chloro-N-[6-[8-[(3,4-difluoro-phenyl)-methyl]-2,8-diazaspiro[4.5]decane-2-carbonyl]-2,3-dihydro-1H-inden-1-yl]-5-(trifluoromethyl)-benzamide]",86%
11,"O=C(NC1CCc2ccc(C(=O)N3CCC4(CCN(Cc5cc(F)ccc5F)CC4)C3)cc21)c1cc(C(F)(F)F)ccc1Cl (stereo not shown) [IND_CC-634, 2-Chloro-N-[6-[8-[(2,5-difluoro-phenyl)-methyl]-2,8-diazaspiro[4.5]decane-2-carbonyl]-2,3-dihydro-1H-inden-1-yl]-5-(trifluoromethyl)-benzamide]",75%
12,"O=C(NC1CCc2ccc(C(=O)N3CCC4(CCN(Cc5ccc(F)cc5F)CC4)C3)cc21)c1cc(C(F)(F)F)ccc1Cl (stereo not shown) [IND_CC-635, 2-Chloro-N-[6-[8-[(2,4-difluoro-phenyl)-methyl]-2,8-diazaspiro[4.5]decane-2-carbonyl]-2,3-dihydro-1H-inden-1-yl]-5-(trifluoromethyl)-benzamide]",72%
13,"COc1ccc(CN2CCC3(CC2)CCN(C(=O)c2ccc4c(c2)C(NC(=O)c2cc(C(F)(F)F)ccc2Cl)CC4)C3)cc1F (stereo not shown) [IND_CC-636, 2-Chloro-N-[6-[8-[(3-fluoro-4-methoxy-phenyl)-methyl]-2,8-diazaspiro[4.5]-decane-2-carbonyl]-2,3-dihydro-1H-inden-1-yl]-5-(trifluoromethyl)-benzamide]",79%
14,"COc1cccc(F)c1CN1CCC2(CC1)CCN(C(=O)c1ccc3c(c1)C(NC(=O)c1cc(C(F)(F)F)ccc1Cl)CC3)C2 (stereo not shown) [IND_CC-637, 2-Chloro-N-[6-[8-[(2-fluoro-6-methoxy-phenyl)-methyl]-2,8-diazaspiro[4.5]-decane-2-carbonyl]-2,3-dihydro-1H-inden-1-yl]-5-(trifluoromethyl)-benzamide]",69%
15,"O=C(NC1CCc2ccc(C(=O)N3CCC4(CCN(Cc5ccc[nH]5)CC4)CC3)cc21)c1cc(C(F)(F)F)ccc1Cl (stereo not shown) [IND_CC-638, 2-Chloro-N-[6-[9-(1H-pyrrol-2-yl-methyl)-3,9-diazaspiro[5.5]undecane-3-carbonyl]-2,3-dihydro-1H-inden-1-yl]-5-(trifluoromethyl)-benzamide]",80%
16,"O=C(NC1CCc2ccc(C(=O)N3CCC4(CCN(Cc5c[nH]cn5)CC4)CC3)cc21)c1cc(C(F)(F)F)ccc1Cl (stereo not shown) [IND_CC-639, 2-Chloro-N-[6-[9-(1H-imidazol-4-yl-methyl)-3,9-diazaspiro[5.5]undecane-3-carbonyl]-2,3-dihydro-1H-inden-1-yl]-5-(trifluoromethyl)-benzamide]",78%
17,"O=C(NC1CCc2ccc(C(=O)N3CCC4(CCN(Cc5ccccn5)CC4)CC3)cc21)c1cc(C(F)(F)F)ccc1Cl (stereo not shown) [IND_CC-640, 2-Chloro-N-[6-[9-(pyridin-2-yl-methyl)-3,9-diazaspiro[5.5]undecane-3-carbonyl]-2,3-dihydro-1H-inden-1-yl]-5-(trifluoromethyl)-benzamide]",73%
18,"O=C(NC1CCc2ccc(C(=O)N3CCC4(CCN(Cc5ccncc5)CC4)CC3)cc21)c1cc(C(F)(F)F)ccc1Cl (stereo not shown) [IND_CC-641, 2-Chloro-N-[6-[9-(pyridin-4-yl-methyl)-3,9-diazaspiro[5.5]undecane-3-carbonyl]-2,3-dihydro-1H-inden-1-yl]-5-(trifluoromethyl)-benzamide]",74%
19,"O=C(NC1CCc2ccc(C(=O)N3CCC4(CCN(Cc5cccnc5)CC4)CC3)cc21)c1cc(C(F)(F)F)ccc1Cl (stereo not shown) [IND_CC-642, 2-Chloro-N-[6-[9-(pyridin-3-yl-methyl)-3,9-diazaspiro[5.5]undecane-3-carbonyl]-2,3-dihydro-1H-inden-1-yl]-5-(trifluoromethyl)-benzamide]",77%
20,"Cn1cccc1CN1CCC2(CC1)CCN(C(=O)c1ccc3c(c1)C(NC(=O)c1cc(C(F)(F)F)ccc1Cl)CC3)CC2 (stereo not shown) [IND_CC-643, 2-Chloro-N-[6-[9-[(1-methyl-1H-pyrrol-2-yl)-methyl]-3,9-diazaspiro[5.5]-undecane-3-carbonyl]-2,3-dihydro-1H-inden-1-yl]-5-(trifluoromethyl)benzamide]",78%
21,"O=C(NC1CCc2ccc(C(=O)N3CCC4(CCN(Cc5c(F)cccc5F)CC4)CC3)cc21)c1cc(C(F)(F)F)ccc1Cl (stereo not shown) [IND_CC-644, 2-Chloro-N-[6-[9-[(2,6-difluoro-phenyl)-methyl]-3,9-diazaspiro[5.5]undecane-3-carbonyl]-2,3-dihydro-1H-inden-1-yl]-5-(trifluoromethyl)-benzamide]",59%
22,"O=C(NC1CCc2ccc(C(=O)N3CCC4(CCN(Cc5ccc(F)c(F)c5)CC4)CC3)cc21)c1cc(C(F)(F)F)ccc1Cl (stereo not shown) [IND_CC-645, 2-Chloro-N-[6-[9-[(3,4-difluoro-phenyl)-methyl]-3,9-diazaspiro[5.5]undecane-3-carbonyl]-2,3-dihydro-1H-inden-1-yl]-5-(trifluoromethyl)-benzamide]",78%
23,"O=C(NC1CCc2ccc(C(=O)N3CCC4(CCN(Cc5cc(F)ccc5F)CC4)CC3)cc21)c1cc(C(F)(F)F)ccc1Cl (stereo not shown) [IND_CC-646, 2-Chloro-N-[6-[9-[(2,5-difluoro-phenyl)-methyl]-3,9-diazaspiro[5.5]undecane-3-carbonyl]-2,3-dihydro-1H-inden-1-yl]-5-(trifluoromethyl)-benzamide]",66%
24,"O=C(NC1CCc2ccc(C(=O)N3CCC4(CCN(Cc5ccc(F)cc5F)CC4)CC3)cc21)c1cc(C(F)(F)F)ccc1Cl (stereo not shown) [IND_CC-647, 2-Chloro-N-[6-[9-[(2,4-difluoro-phenyl)-methyl]-3,9-diazaspiro[5.5]undecane-3-carbonyl]-2,3-dihydro-1H-inden-1-yl]-5-(trifluoromethyl)-benzamide]",73%
25,"COc1ccc(CN2CCC3(CC2)CCN(C(=O)c2ccc4c(c2)C(NC(=O)c2cc(C(F)(F)F)ccc2Cl)CC4)CC3)cc1F (stereo not shown) [IND_CC-648, 2-Chloro-N-[6-[9-[(3-fluoro-4-methoxy-phenyl)-methyl]-3,9-diazaspiro[5.5]-undecane-3-carbonyl]-2,3-dihydro-1H-inden-1-yl]-5-(trifluoromethyl)benzamide]",78%
